# Assays:
# [1] = biological target: T1, BRD2 BD1 L/V (Homo sapiens, UniProt P25440, L110V); experiment: ITC; assay type: binding; conditions: for ΔH BRD2 BD1 L/V: ITC
# [2] = biological target: T2, BRD3 BD2 WT (Homo sapiens, UniProt Q15059); experiment: competitive AlphaLISA; assay type: binding
# [3] = biological target: T3, BRD3 BD1 L/V (Homo sapiens, UniProt Q15059, L70V); experiment: ITC; assay type: binding; conditions: for ΔH BRD3 BD1 L/V: ITC
# [4] = biological target: T1, BRD2 BD1 L/V; experiment: competitive AlphaLISA; assay type: binding
# [5] = biological target: T4, BRD2 BD2 L/V (Homo sapiens, UniProt P25440, L383V); experiment: competitive AlphaLISA; assay type: binding
# [6] = biological target: T5, BRD4 BD1 L/V (Homo sapiens, UniProt O60885, L94V); experiment: competitive AlphaLISA; assay type: binding
# [7] = biological target: WT somatic BET bromodomains; experiment: ITC; conditions: mean and SD of all somatic bromodomains
# [8] = Plasma Half-life; conditions: BALB/c, mouse, pH 7.4
# [9] = biological target: T6, BRD2 BD1 WT (Homo sapiens, UniProt P25440); experiment: ITC; assay type: binding
# [10] = biological target: BRDT BD1 L/V (Homo sapiens, UniProt Q58F21, L63V); experiment: competitive AlphaLISA; assay type: binding
# [11] = biological target: T7, BRD3 BD1 WT (Homo sapiens, UniProt Q15059); experiment: competitive AlphaLISA; assay type: binding
# [12] = biological target: T3, BRD3 BD1 L/V; experiment: competitive AlphaLISA; assay type: binding
# [13] = biological target: T8, BRD4 BD1 WT (Homo sapiens, UniProt O60885); experiment: ITC; assay type: binding; conditions: for ΔH BRD4 BD1 WT: ITC
# [14] = in vitro; conditions: PAMPA, pH 7.4
# [15] = system: L/V BET bromodomains (BD1 and BD2 of BRD2, BRD3 and BRD4); experiment: competitive AlphaLISA (Bio-JQ1 displacement); assay type: binding, human; conditions: for AlphaLISA pIC50 ± SD Δ: L/V minus WT
# [16] = biological target: T9, BRD2 BD2 WT (Homo sapiens, UniProt P25440); experiment: ITC; assay type: binding
# [17] = biological target: T10, BRD3 BD2 L/V (Homo sapiens, UniProt Q15059, L345V); experiment: ITC; assay type: binding; conditions: for ΔH BRD3 BD2 L/V: ITC
# [18] = Intrinsic Clearance; conditions: mouse liver microsomes
# [19] = biological target: T6, BRD2 BD1 WT; experiment: competitive AlphaLISA; assay type: binding
# [20] = biological target: T9, BRD2 BD2 WT; experiment: competitive AlphaLISA; assay type: binding
# [21] = biological target: T8, BRD4 BD1 WT; experiment: competitive AlphaLISA; assay type: binding
# [22] = biological target: WT BET bromodomains (BD1 and BD2 of BRD2, BRD3 and BRD4); experiment: competitive AlphaLISA (Bio-JQ1 displacement); assay type: binding, human; conditions: mean and SD of all somatic bromodomains; active enantiomer concentration
# [23] = biological target: T11, BRD4 BD2 L/V (Homo sapiens, UniProt O60885, L387V); experiment: competitive AlphaLISA; assay type: binding
# [24] = biological target: T10, BRD3 BD2 L/V; experiment: competitive AlphaLISA; assay type: binding
# [25] = biological target: T4, BRD2 BD2 L/V; experiment: ITC; assay type: binding; conditions: for ΔH BRD2 BD2 L/V: ITC
# [26] = biological target: T2, BRD3 BD2 WT; experiment: ITC; assay type: binding; conditions: for ΔH BRD3 BD2 WT: ITC
# [27] = system: L/V somatic BET bromodomains; experiment: ITC; conditions: for ITC pKd ± SD Δ: L/V minus WT
# [28] = biological target: T12, BRD4 BD2 WT (Homo sapiens, UniProt O60885); experiment: ITC; assay type: binding
# [29] = biological target: T11, BRD4 BD2 L/V; experiment: ITC; assay type: binding; conditions: for ΔH BRD4 BD2 L/V: ITC
# [30] = biological target: BRDT BD1 WT (Homo sapiens, UniProt Q58F21); experiment: competitive AlphaLISA; assay type: binding
# [31] = biological target: T7, BRD3 BD1 WT; experiment: ITC; assay type: binding
# [32] = biological target: T12, BRD4 BD2 WT; experiment: competitive AlphaLISA; assay type: binding
# [33] = biological target: T5, BRD4 BD1 L/V; experiment: ITC; assay type: binding; conditions: for Kd: Kd BRD4 BD1 L/V; for N BRD4 BD1 L/V: ITC stoichiometry
# [34] = system: GFP-BRD4 L/V constructs with NF-κB-RE/luc2P reporter in HEK293T cells; experiment: NF-κB luciferase assay; assay type: cell-based, human; conditions: 1 µM, inhibiting either individual BD of BRD4
# Description: To provide additional functional insights into the individual roles of BD1 vs. BD2 beyond chromatin binding, a luciferase assay was developed to monitor the expression of NF-κB target genes, inspired by work of Zou et al.[45] […] This luciferase induction was maintained with L/V mutations (but not L/A), consistent again with more WT-like functionality of L/V compared to L/A (Fig. 9A).
# 12 – NF-κB Luciferase Assay
# Luciferase experiments were performed in human HEK293T cells seeded in a 24-well plate at 100 000 cells in […]
# pBABE NF-κB-RE/luc2P reporter plasmid. Cells were transfected using Lipofectamine™ LTX (Invitrogen) with PLUS™ reagent, with each well receiving 0.5 µg of each plasmid, 2.5 µl LTX and 0.5 µl PLUS reagent. The next day cells were treated with compounds, giving a final concentration of 1 µM compound and 0.01% DMSO. 6 hours later cells were washed with PBS, lysed with passive lysis buffer (Promega) and stored at -20°C.
# Luciferase activity was measured suing the Promega luciferase assay. In a black 384-well plate 3µl of clarified lysate was mixed with 15µl luciferase assay reagent and after 15 minutes luminescence was measured in a Pherastar FS. […]
# NMR spectra were recorded on a Bruker 500 Ultrashield or a Bruker Ascend 400. […] High Resolution Mass Spectra (HRMS) were recorded on a Bruker micrOTOF. […]
# [35] = biological target: BRDT BD2 WT (Homo sapiens, UniProt Q58F21); experiment: competitive AlphaLISA; assay type: binding
# [36] = biological target: BRDT BD2 L/V (Homo sapiens, UniProt Q58F21, L306V); experiment: competitive AlphaLISA; assay type: binding
# [37] = AlphaLISA pIC50 Value BRD4 BD1 L/V
# [38] = AlphaLISA pIC50 Value BRD4 BD1 WT
# T4 sequence (P25440 344-455 L383V): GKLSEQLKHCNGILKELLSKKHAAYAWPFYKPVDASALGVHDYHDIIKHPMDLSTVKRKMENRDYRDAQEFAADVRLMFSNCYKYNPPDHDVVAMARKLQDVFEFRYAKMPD
# T3 sequence (Q15059 24-144 L70V limits assumed): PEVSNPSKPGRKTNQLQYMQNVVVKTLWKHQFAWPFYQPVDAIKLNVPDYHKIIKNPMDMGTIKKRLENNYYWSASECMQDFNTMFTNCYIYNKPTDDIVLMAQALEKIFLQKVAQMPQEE
# T10 sequence (Q15059 306-416 L345V limits assumed): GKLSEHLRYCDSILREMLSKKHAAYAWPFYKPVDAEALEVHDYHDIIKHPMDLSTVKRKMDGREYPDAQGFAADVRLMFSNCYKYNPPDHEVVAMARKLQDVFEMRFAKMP
# T6 sequence (P25440 71-176): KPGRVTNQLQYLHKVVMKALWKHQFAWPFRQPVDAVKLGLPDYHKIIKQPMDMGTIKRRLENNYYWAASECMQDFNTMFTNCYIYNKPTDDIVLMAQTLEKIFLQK
# T7 sequence (Q15059 24-144): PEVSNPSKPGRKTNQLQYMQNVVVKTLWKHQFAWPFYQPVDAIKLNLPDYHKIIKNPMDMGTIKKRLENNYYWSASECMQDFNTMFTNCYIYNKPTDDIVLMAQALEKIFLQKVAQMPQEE
# T9 sequence (P25440 344-455): as the sequence (P25440 344-455 L383V) above, with V40L counted along it
# T2 sequence (Q15059 306-416): as the sequence (Q15059 306-416 L345V limits assumed) above, with V40L counted along it
# T1 sequence (P25440 71-176 L110V limits assumed): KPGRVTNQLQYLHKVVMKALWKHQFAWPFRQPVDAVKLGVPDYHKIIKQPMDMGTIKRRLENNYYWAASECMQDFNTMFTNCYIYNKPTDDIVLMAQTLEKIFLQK
compound,measurement,setting,value
"C=CC[C@@H](C(=O)OC)[C@@H]1N=C(c2ccc(Cl)cc2)c2cc(OC)ccc2-n2c(C)nnc21 (racemic) [Compound 5, (+-)methyl (R)-2-((S)-6-(4-chlorophenyl)-8-methoxy-1-methyl-4H-benzo[f][1,2,4]triazolo[4,3-a][1,4]diazepin-4-yl)pent-4-enoate]",Kd,[1],0.47 µM
same,ΔH BRD2 BD1 L/V,[1],-43.1 kJ/mol
same,IC50,[2],10 µM
same,Kd,[3],0.27 µM
same,ΔH BRD3 BD1 L/V,[3],-47.3 kJ/mol
same,IC50,[4],1 µM
same,IC50,[5],0.158 µM
same,IC50,[6]; [37],0.316 µM
same,ITC pKd ± SD WT,[7],5.1 ± 0.4
same,half-life at 50 µM,[8],> 3 h
same,Kd,[9],8.4 µM
same,ΔH BRD2 BD1 WT,[9]; ITC,-16.7 kJ/mol
same,N BRD2 BD1 WT,[9]; ITC stoichiometry,1.0
same,IC50,[10],2 µM
same,IC50,[11],3.98 µM
same,IC50,[12],0.126 µM
same,Kd,[13],9.7 µM
same,ΔH BRD4 BD1 WT,[13],-14.6 kJ/mol
same,N BRD4 BD1 WT,[13]; ITC stoichiometry,1.10
same,Papp,[14],127 nm/s
same,AlphaLISA pIC50 ± SD Δ,[15],1.5 ± 0.3
same,Kd,[16],5.8 µM
same,ΔH BRD2 BD2 WT,[16]; ITC,-9.62 kJ/mol
same,N BRD2 BD2 WT,[16]; ITC stoichiometry,0.75
same,Kd,[17],0.31 µM
same,ΔH BRD3 BD2 L/V,[17],-35.6 kJ/mol
same,CL int,[18],6.7 ml min^–1 g^–1
same,IC50,[19],10 µM
same,IC50,[20],10 µM
same,IC50,[21]; [38],7.94 µM
same,AlphaLISA pIC50 ± SD WT,[22],5.1 ± 0.1
same,IC50,[23],0.251 µM
same,IC50,[24],0.126 µM
same,Kd,[25],0.24 µM
same,ΔH BRD2 BD2 L/V,[25],-24.7 kJ/mol
same,Kd,[26],23 µM
same,ΔH BRD3 BD2 WT,[26],-15.5 kJ/mol
same,ITC pKd ± SD Δ,[27],1.5 ± 0.5
same,ΔH BRD4 BD2 WT,[28]; ITC,-9.2 kJ/mol
same,N BRD4 BD2 WT,[28]; ITC stoichiometry,0.98
same,Kd,[29],0.17 µM
same,ΔH BRD4 BD2 L/V,[29],-26.8 kJ/mol
same,IC50,[30],20 µM
same,Kd,[31],1.5 µM
same,ΔH BRD3 BD1 WT,[31]; ITC,-9.62 kJ/mol
same,N BRD3 BD1 WT,[31]; ITC stoichiometry,0.85
same,IC50,[32],10 µM
same,ΔH BRD4 BD1 L/V,[33]; ITC,-31 kJ/mol
same,Kd,"[33]; ITC, 30°C",0.18 µM
"CC[C@@H](C(=O)OC)[C@@H]1N=C(c2ccc(Cl)cc2)c2ccc(OC)cc2-n2c(C)nnc21 (relative stereo) [(2R,3S)-8]",effect on NF-κB signalling,[34],strongly impacted on NF-κB signalling
same,ΔpIC50 BRD4 BD1,"[6]; L/V minus WT, total compound concentration",1.8
same,IC50,"[6]; pIC50 BRD4 BD1 L/V, separated enantiomers test, total compound concentration",1.26 µM
same,Kd,[13],> 60 µM
same,IC50,"[21]; pIC50 BRD4 BD1 WT, separated enantiomers test, total compound concentration",79.4 µM
same,N BRD4 BD1 L/V,[33]; total compound concentration,0.85 ±0.01
same,ΔH BRD4 BD1 L/V,"[33]; ITC, total compound concentration",-27.2 ± 0.42 kJ/mol
same,Kd,"[33]; ITC of separated enantiomers and racemates, total compound concentration",0.44 ± 0.05 µM
CCNC(=O)[C@H](C)[C@@H]1N=C(c2ccc(Cl)cc2)c2ccc(OC)cc2-n2c(C)nnc21 (relative stereo) [Compound 21],Kd,[1],0.99 µM
same,ΔH BRD2 BD1 L/V,[1],-36.8 kJ/mol
same,N BRD2 BD1 L/V,[1]; ITC stoichiometry,0.97
same,IC50,[35],25.1 µM
same,IC50,[2],15.8 µM
same,Kd,[3],0.41 µM
same,ΔH BRD3 BD1 L/V,[3],-44.8 kJ/mol
same,N BRD3 BD1 L/V,[3]; ITC stoichiometry,0.92
same,IC50,[4],2 µM
same,IC50,[5],1 µM
same,IC50,[6]; [37],1 µM
same,ITC pKd ± SD WT,[7],4.5 ± 0.4
same,half-life at 50 µM,[8],> 3 h
same,Kd,[9],> 60 µM
same,IC50,[10],2.51 µM
same,IC50,[11],5.01 µM
same,IC50,[36],1.58 µM
same,IC50,[12],0.501 µM
same,Kd,[13],39 µM
same,ΔH BRD4 BD1 WT,[13],-13.8 kJ/mol
same,Papp,[14],40 nm/s
same,AlphaLISA pIC50 ± SD Δ,[15],1.3 ± 0.2
same,AlphaLISA pIC50 ± SD L/V,"[15]; mean and SD of all somatic bromodomains, active enantiomer concentration",6.0 ± 0.2
same,Kd,[17],0.8 µM
same,ΔH BRD3 BD2 L/V,[17],-28 kJ/mol
same,N BRD3 BD2 L/V,[17]; ITC stoichiometry,0.90
same,CL int,[18],1.5 ml min^–1 g^–1
same,IC50,[19],39.8 µM
same,IC50,[20],15.8 µM
same,IC50,[21]; [38],25.1 µM
same,AlphaLISA pIC50 ± SD WT,[22],4.7 ± 0.3
same,IC50,[23],1.26 µM
same,IC50,[24],0.501 µM
same,Kd,[25],0.23 µM
same,ΔH BRD2 BD2 L/V,[25],-20.1 kJ/mol
same,N BRD2 BD2 L/V,[25]; ITC stoichiometry,0.84
same,Kd,[26],11 µM
same,ΔH BRD3 BD2 WT,[26],-18.8 kJ/mol
same,N BRD3 BD2 WT,[26]; ITC stoichiometry,0.46
same,ITC pKd ± SD Δ,[27],1.8 ± 0.5
same,ITC pKd ± SD L/V,[27]; mean and SD of all somatic bromodomains,6.3 ± 0.2
same,Kd,[28],> 60 µM
same,Kd,[29],0.32 µM
same,ΔH BRD4 BD2 L/V,[29],-18.4 kJ/mol
same,N BRD4 BD2 L/V,[29]; ITC stoichiometry,1.06
same,IC50,[30],50.1 µM
same,IC50,[32],31.6 µM
same,ΔH BRD4 BD1 L/V,[33]; ITC,-24.7 kJ/mol
same,N BRD4 BD1 L/V,[33],0.88
same,Kd,"[33]; ITC, 30°C",0.37 µM
